Test results reported in patent US20230053540A1, “TREATMENT OF LIVER INJURY” (Massachusetts Institute of Technology, priority 2019, published 2023).

Test system: hepatocytes
Experiment: Seq-Well scRNA-Seq of hepatocytes after APAP overdose (signature scores, DEG vs untreated)
Format: in vivo, mouse
[1] = cluster A6, DEG between treatment (APAP and PH)

CC(=O)Nc1ccc(O)cc1 [APAP, acetaminophen]
avg_logFC Tmsb4x [1]: 0.7911
avg_logFC Tnfrsf1a [1]: 0.5681
avg_logFC Tnfrsf12a [1]: 1.105
avg_logFC Tns1 [1]: 0.4001
avg_logFC Tra2a [1]: 0.7081
avg_logFC Trp53inp1 [1]: 0.8829
avg_logFC Tsc22d2 [1]: 0.3629
avg_logFC Tsku [1]: 0.3332
avg_logFC Tsr1 [1]: 0.3392
avg_logFC Tubb2a [1]: 0.786
avg_logFC Tubb6 [1]: 0.5715
avg_logFC Txnrd1 [1]: 1.375
avg_logFC Ugdh [1]: 0.6085
avg_logFC Wbp1l [1]: 0.3897
avg_logFC Wdr43 [1]: 0.3083
avg_logFC Xbp1 [1]: 0.5694
avg_logFC Ywhag [1]: 0.5132
avg_logFC Zyx [1]: 0.2799
avg_logFC mmu-mir-6240 [1]: 1.032
avg_logFC n-R5-8s1 [1]: 0.4005
avg_logFC Acly (cluster A24 (APAP, 24 h)): 0.3005
avg_logFC Arcn1 (cluster A24 (APAP, 24 h)): 0.2594
avg_logFC Cltc (cluster A24 (APAP, 24 h)): 0.2853
avg_logFC Cmah (cluster A24 (APAP, 24 h)): 0.2958
avg_logFC Ctnnb1 (cluster A24 (APAP, 24 h)): 0.25
avg_logFC Dnajb11 (cluster A24 (APAP, 24 h)): 0.2998
avg_logFC Dnajc12 (cluster A24 (APAP, 24 h)): 0.2565
avg_logFC Etnk1 (cluster A24 (APAP, 24 h)): 0.2761
avg_logFC Fndc3b (cluster A24 (APAP, 24 h)): 0.2502
avg_logFC Gm26917 (cluster A24 (APAP, 24 h)): 0.5819
avg_logFC Magt1 (cluster A24 (APAP, 24 h)): 0.253
avg_logFC Nab1 (cluster A24 (APAP, 24 h)): 0.2534
avg_logFC Nars (cluster A24 (APAP, 24 h)): 0.2657
avg_logFC Nedd4 (cluster A24 (APAP, 24 h)): 0.2553
avg_logFC Ptprf (cluster A24 (APAP, 24 h)): 0.2512
avg_logFC Rab1 (cluster A24 (APAP, 24 h)): 0.2582
avg_logFC Sec61b (cluster A24 (APAP, 24 h)): 0.2648
avg_logFC Srebf1 (cluster A24 (APAP, 24 h)): 0.2874
avg_logFC Usp4 (cluster A24 (APAP, 24 h)): 0.2727
avg_logFC Usp9x (cluster A24 (APAP, 24 h)): 0.2853
avg_logFC 1-Mar (cluster A48 (APAP, 48 h)): 0.2986
avg_logFC 0610005C13Rik (cluster A48 (APAP, 48 h)): 0.3977
avg_logFC 1600002H07Rik (cluster A48 (APAP, 48 h)): 0.2939
avg_logFC Abcb4 (cluster A48 (APAP, 48 h)): 0.4702
avg_logFC Abcc3 (cluster A48 (APAP, 48 h)): 0.4075
avg_logFC Abcd2 (cluster A48 (APAP, 48 h)): 0.2906
avg_logFC Abhd14b (cluster A48 (APAP, 48 h)): 0.4104
avg_logFC Acadl1 (cluster A48 (APAP, 48 h)): 0.3879
avg_logFC Acat1 (cluster A48 (APAP, 48 h)): 0.3773
avg_logFC Acbd5 (cluster A48 (APAP, 48 h)): 0.3517
avg_logFC Aco2 (cluster A48 (APAP, 48 h)): 0.3054
avg_logFC Acot12 (cluster A48 (APAP, 48 h)): 0.3091
avg_logFC Acsl1 (cluster A48 (APAP, 48 h)): 0.3668
avg_logFC Agt (cluster A48 (APAP, 48 h)): 0.5339
avg_logFC Ahcy (cluster A48 (APAP, 48 h)): 0.4739
avg_logFC Ahsg (cluster A48 (APAP, 48 h)): 0.2506
avg_logFC Akr1c19 (cluster A48 (APAP, 48 h)): 0.3705
avg_logFC Aldh9a1 (cluster A48 (APAP, 48 h)): 0.4147
avg_logFC Aldoa (cluster A48 (APAP, 48 h)): 0.2635
avg_logFC Aldob (cluster A48 (APAP, 48 h)): 0.3758
avg_logFC Amy1 (cluster A48 (APAP, 48 h)): 0.495
avg_logFC Anapc13 (cluster A48 (APAP, 48 h)): 0.2762
avg_logFC Angptl3 (cluster A48 (APAP, 48 h)): 0.7705
avg_logFC Apoa5 (cluster A48 (APAP, 48 h)): 0.4366
avg_logFC Apoc1 (cluster A48 (APAP, 48 h)): 0.3638
avg_logFC Apoc2 (cluster A48 (APAP, 48 h)): 0.8142
avg_logFC Apoc3 (cluster A48 (APAP, 48 h)): 0.3634
avg_logFC Apoc4 (cluster A48 (APAP, 48 h)): 0.5053
avg_logFC Apoe (cluster A48 (APAP, 48 h)): 0.6102
avg_logFC Apoh (cluster A48 (APAP, 48 h)): 0.5359
avg_logFC Armc1 (cluster A48 (APAP, 48 h)): 0.2587
avg_logFC Asgr2 (cluster A48 (APAP, 48 h)): 0.3431
avg_logFC Aspdh (cluster A48 (APAP, 48 h)): 0.326
avg_logFC Atf5 (cluster A48 (APAP, 48 h)): 0.3544
avg_logFC Atp5b (cluster A48 (APAP, 48 h)): 0.3451
avg_logFC Atp5g3 (cluster A48 (APAP, 48 h)): 0.3996
avg_logFC Atp5j (cluster A48 (APAP, 48 h)): 0.4575
avg_logFC Atp5k (cluster A48 (APAP, 48 h)): 0.4074
avg_logFC Atp5h (cluster A48 (APAP, 48 h)): 0.7312
avg_logFC Azgp1 (cluster A48 (APAP, 48 h)): 0.2836
avg_logFC Bfar (cluster A48 (APAP, 48 h)): 0.3018
avg_logFC Bnip3 (cluster A48 (APAP, 48 h)): 0.5262
avg_logFC Brap (cluster A48 (APAP, 48 h)): 0.3395
avg_logFC Camk2n1 (cluster A48 (APAP, 48 h)): 0.2578
avg_logFC Cd1d1 (cluster A48 (APAP, 48 h)): 0.3518
avg_logFC Cdo1 (cluster A48 (APAP, 48 h)): 0.4301
avg_logFC Cebpb (cluster A48 (APAP, 48 h)): 0.4231
avg_logFC Ces1b (cluster A48 (APAP, 48 h)): 0.5308
avg_logFC Ces1c (cluster A48 (APAP, 48 h)): 0.5861
avg_logFC Ces1f (cluster A48 (APAP, 48 h)): 0.3532
avg_logFC Ces2a (cluster A48 (APAP, 48 h)): 0.3404
avg_logFC Ces1d (cluster A48 (APAP, 48 h)): 0.3324
avg_logFC Chchd10 (cluster A48 (APAP, 48 h)): 0.814
avg_logFC Cox5a (cluster A48 (APAP, 48 h)): 0.4303
avg_logFC Cox8a (cluster A48 (APAP, 48 h)): 0.5202
avg_logFC Cp (cluster A48 (APAP, 48 h)): 0.2715
avg_logFC Cpt2 (cluster A48 (APAP, 48 h)): 0.3214
avg_logFC Creb3l3 (cluster A48 (APAP, 48 h)): 0.3228
avg_logFC Creg1 (cluster A48 (APAP, 48 h)): 0.418
avg_logFC Ctsd (cluster A48 (APAP, 48 h)): 0.3237
avg_logFC Ctsh (cluster A48 (APAP, 48 h)): 0.4649
